US20240148757A1, “USE OF DIHYDROOROTATE DEHYDROGENASE (DHODH) INHIBITORS TO TARGET FERROPTOSIS IN CANCER THERAPY” (BOARD OF REGENTS, THE UNIVERSITY OF TEXAS SYSTEM, priority 2021, published 2024)

Tests used:
[1] = system: GPX4^high HT-1080 cells; experiment: Cell viability / cell death (ferroptosis) in HT-1080 cells; type: cell-based, human; conditions: 24 hours
Method in brief: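 HT-1080 cells were exposed to GPX4 or DHODH inhibitors for 4 h, and viability was then read by CCK-8 absorbance at 450 nm after 1 h at 37 °C. Separately, cell death was scored as the propidium iodide-positive fraction (5 μg/ml) by flow cytometry, ≥10,000 cells per well.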

[2] = system: GPX4 knockdown HT-1080 cells with DHODH deletion; experiment: Lipid peroxidation and ferroptosis in DHODH KO, GPX4 knockdown HT-1080 cells; type: cell-based, human
Procedure: Knockout of DHODH, ACSL4 and COQ2 in human cell lines was performed using single guide RNAs (sgRNAs) and doxycycline (DOX)-inducible CRISPR-Cas9 expression system as described in our recent publication (Lee, H., et al., Nature cell biology 22, 225-234 (2020)). sgRNAs were cloned into the lentiviral lentiGuide vector. LentiGuide clones were transfected into HEK293T cells with psPAX2 packaging plasmid and pMD2.G expressing plasmid. Cells were infected with lentivirus with 0.8 μg/ml polybrene, selected with puromycin (1 μg/ml, InvivoGen), blasticidin (2 μg/ml, InvivoGen) or hygromycin B (2 μg/ml, InvivoGen) for 3 days and then single cells were sorted into 96-well plates. […]
Cells were seeded on 12-well plates and incubated overnight. […] Lipid peroxidation was assessed using the flow cytometer BD Accuri C6 with a 488 nm laser on an FL1 detector. A minimum of 10,000 single cells were analyzed per well.
Cell death was measured by propidium iodide (Roche) staining using a flow cytometer, as previously described (Dai, F., et al., Proc Natl Acad Sci USA 114, 3192-3197 (2017); Zhang, Y., et al., Cancer Res 80, 2243-2256 (2020)). […] A minimum of 10,000 single cells were analyzed per well and all experiments were carried out at least in triplicate.

[3] = system: GPX4^low patient-derived xenografts (PDXs); experiment: GPX4^low patient-derived xenograft model; type: in vivo, NSG mice; conditions: liproxstatin-1 10 mg/kg intraperitoneally daily
Description: PDXs were generated in accordance with protocols approved by the Institutional Review Board at The University of Texas MD Anderson Cancer Center. Informed consent was obtained from the patients and the study is compliant with all relevant ethical regulations regarding research involving human participants. All the NOD scid gamma (NSG) mice were purchased from the Experimental Radiation Oncology Breeding Core Facility at MD Anderson Cancer Center and housed in the Animal Care Facility at the Department of Veterinary Medicine and Surgery at MD Anderson Cancer Center. PDX model used in this study was originally obtained from lung cancer PDX platform at MD Anderson Cancer Center. PDX experiments were performed as previously described (Liu, X., et al., Nat Cell Biol 22, 476-486 (2020)). Briefly, PDX tumors in cold DMEM media were minced into fragments 1-2 mm^3 in volume. Then each PDX tumor fragment was subcutaneously inoculated into the dorsal flank of NSG mice. When the tumors reached 50-100 mm 3 in volume, the mice were assigned randomly into different treatment groups for the treatment of brequinar, sulfasalazine, and/or liproxstatin-1 as described under cell line-derived xenograft model. The tumor volume was measured every 3 days until the endpoint and calculated according to the equation volume=length×width^2×½.

Structure (SMILES): Clc1cccc(CN=C2Nc3ccccc3NC23CCNCC3)c1 [liproxstatin-1]
- rescue of DHODH inhibition-induced cell death ([1]; BQR, pretreatment Lip-1 or ZVF 10 μM): the opposite was observed
- protection against GPX4 inhibition (RSL3 or ML162)-induced ferroptosis ([1]; DHODH WT, pretreatment 10 μM): rescued
- rescue of lipid peroxidation and ferroptosis [2]: could be rescued
- restoration of brequinar-suppressed tumor growth [3]: could be restored
